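Exposure lasted 48 hours, with cells grown in 96-well plates and compounds tested at five concentrations. GI50 marks 50% less growth.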 Activity calls are given as the source filed them. Cut-off read from the data, not from the text of the source: active = GI50 up to about 1.1 µM and inactive = higher.

Some test systems named below: HCT-15; NCI-H23; A498; Hs-578T; M14; OVCAR-3; MDA-MB-435; MOLT-4; A549; LOX IMVI; SK-MEL-2; BT-549; 786-0; HT-29; HCT-116; EKVX; CCRF-CEM; Malme-3M; SK-MEL-5; SR.
What all share (test): growth of human tumour cells (NCI), 48 h

Consider `O=C(Nc1cc(C(=O)Nc2cccc(S(=O)(=O)O)c2)cc(C(=O)Nc2cccc(S(=O)(=O)O)c2)c1)c1cccc(C(=O)Nc2cc(C(=O)Nc3cccc(S(=O)(=O)O)c3)cc(C(=O)Nc3cccc(S(=O)(=O)O)c3)c2)c1`, for which the GI50 in the test with HCT-15 is 50.7 µM; with NCI-H23, > 100 µM (inactive); with A498, 84.7 µM (inactive); in the test with Hs-578T, > 100 µM (inactive); with M14, 97.1 µM (inactive); in the test on OVCAR-3 it was > 100 µM (inactive). Besides, the GI50 in the test with MDA-MB-435, in the test on MOLT-4, in the test with A549, with LOX IMVI, in the test with SK-MEL-2 and with BT-549 was > 100 µM (inactive) each time. In addition, the GI50 in the test on 786-0, in the test with HT-29, in the test on HCT-116, in the test with EKVX, with CCRF-CEM and in the test on Malme-3M was > 100 µM (inactive) each time. The GI50 in the test with SK-MEL-5 is > 100 µM (inactive).
Take `CCOC(=O)c1cn(CC)c2ccc3ccsc3c2c1=O`: the GI50 in the test on HCT-15 was over 100 µM; in the test with NCI-H23 it was > 100 µM (inactive); in the test with A498, > 100 µM (inactive); with Hs-578T, > 100 µM (inactive); with M14 it was > 100 µM (inactive); in the test on OVCAR-3, > 100 µM (inactive). Further, the GI50 is > 100 µM (inactive) in the test with MDA-MB-435; > 100 µM (inactive) in the test on MOLT-4; > 100 µM (inactive) in the test on A549; > 100 µM (inactive) in the test with LOX IMVI; 75.2 µM (inactive) with SK-MEL-2; > 100 µM (inactive) in the test with BT-549. Also, the GI50 with 786-0, in the test on HT-29, in the test with HCT-116, with EKVX, in the test with CCRF-CEM and in the test on Malme-3M was > 100 µM (inactive) throughout. The GI50 in the test on SK-MEL-5 was > 100 µM (inactive).
In the case of `COc1cc(OC)c2c(=O)c(OC)c(-c3ccc4c(c3)OCO4)oc2c1`, the GI50 was over 100 µM with HCT-15; 23.2 µM (inactive) with NCI-H23; 15.6 µM (inactive) in the test with A498; 35.1 µM (inactive) in the test with Hs-578T; > 100 µM (inactive) in the test on M14; > 100 µM (inactive) in the test with OVCAR-3. In addition, the GI50 with MDA-MB-435 was > 100 µM (inactive); in the test on MOLT-4, > 100 µM (inactive); in the test with A549 it was > 100 µM (inactive); in the test on LOX IMVI, 15.8 µM (inactive); in the test with SK-MEL-2, 19.1 µM (inactive); with BT-549, 71.1 µM (inactive). For the same compound, the GI50 in the test with 786-0 is 36 µM (inactive); with HT-29 it was > 100 µM (inactive); in the test on HCT-116, 44.4 µM (inactive); in the test on EKVX it was 41.7 µM (inactive); in the test with CCRF-CEM, > 100 µM (inactive); with Malme-3M it was > 100 µM (inactive). Further, in the test with SK-MEL-5, the GI50 was 47.3 µM (inactive).
For the compound `Cc1cn(CC2=NCC(C)N2)c(=O)[nH]c1=O` (centres undefined), the GI50 in the test on HCT-15 was over 100 µM; in the test on NCI-H23 it was > 100 µM (inactive); in the test on A498, > 100 µM (inactive); with SR it was > 100 µM (inactive); with Hs-578T, > 100 µM (inactive); in the test with M14 it was > 100 µM (inactive). The GI50 in the test on MOLT-4, in the test with A549, in the test on LOX IMVI, in the test with SK-MEL-2, in the test with BT-549 and in the test on 786-0 was > 100 µM (inactive) in each case. In addition, the GI50 with HT-29, in the test on HCT-116, in the test with EKVX, in the test with Malme-3M and with SK-MEL-5 was > 100 µM (inactive) each time.
Regarding `COc1cc2nc(-c3ccc4ccccc4c3)nc(O)c2cc1OC`, the GI50 in the test on HCT-15 is over 100 µM; with NCI-H23, 49.2 µM (inactive); in the test on A498, 72.9 µM (inactive); with SR, > 100 µM (inactive); with Hs-578T it was 53.2 µM (inactive); in the test with M14, > 100 µM (inactive). In addition, the GI50 in the test with OVCAR-3 is > 100 µM (inactive); in the test with MOLT-4, > 100 µM (inactive); with A549, > 100 µM (inactive); in the test with LOX IMVI, > 100 µM (inactive); in the test on SK-MEL-2, 42.8 µM (inactive); in the test with BT-549, > 100 µM (inactive). Also, the GI50 was 22.9 µM (inactive) in the test on 786-0; > 100 µM (inactive) with HT-29; > 100 µM (inactive) in the test on HCT-116; > 100 µM (inactive) with EKVX; > 100 µM (inactive) with CCRF-CEM; 49.2 µM (inactive) in the test with Malme-3M. Besides, the GI50 in the test on SK-MEL-5 is > 100 µM (inactive).
For `C(=C\c1ccccc1)/Cn1nc(-c2ccccc2)nc1-c1cnccn1`, the GI50 with HCT-15 was over 100 µM; in the test on NCI-H23, > 100 µM (inactive); in the test on SR, > 100 µM (inactive); with M14, > 100 µM (inactive); in the test with OVCAR-3 it was > 100 µM (inactive); in the test on MDA-MB-435, > 100 µM (inactive). Moreover, the GI50 with MOLT-4, in the test with A549, in the test with LOX IMVI, in the test with BT-549, with 786-0 and in the test with HT-29 was > 100 µM (inactive) in each case. In addition, the GI50 with HCT-116 is > 100 µM (inactive); with EKVX, > 100 µM (inactive); in the test with CCRF-CEM, > 100 µM (inactive); in the test on SK-MEL-5, 29.5 µM (inactive).
For `CC(C)N1CCCOC(c2ccc([N+](=O)[O-])cc2)O1` (centres undefined), the GI50 with HCT-15 was over 100 µM; in the test on NCI-H23, > 100 µM (inactive); in the test with A498, > 100 µM (inactive); in the test on SR, > 100 µM (inactive); with M14, > 100 µM (inactive); in the test on OVCAR-3 it was > 100 µM (inactive). Besides, the GI50 in the test with MDA-MB-435, in the test with MOLT-4, in the test on A549, in the test on LOX IMVI, in the test on SK-MEL-2 and in the test with BT-549 was > 100 µM (inactive) each time. Also, the GI50 in the test on 786-0, in the test on HT-29, in the test on HCT-116, in the test on EKVX, in the test with CCRF-CEM and in the test with Malme-3M was > 100 µM (inactive) each time. Also, in the test with SK-MEL-5, the GI50 was 58.6 µM (inactive).
In the case of `NC(CNO)C(=O)O` (centres undefined), the GI50 in the test with HCT-15 was over 100 µM; in the test with NCI-H23 it was > 100 µM (inactive); in the test with A498, > 100 µM (inactive); in the test with Hs-578T it was > 100 µM (inactive); in the test on M14, > 100 µM (inactive); in the test with OVCAR-3 it was > 100 µM (inactive). Besides, the GI50 in the test on MDA-MB-435, in the test on A549, in the test on LOX IMVI, in the test with SK-MEL-2, in the test on BT-549 and in the test on 786-0 was > 100 µM (inactive) in each case. Moreover, the GI50 in the test on HT-29, in the test with HCT-116, with EKVX, in the test on Malme-3M and with SK-MEL-5 was > 100 µM (inactive) throughout.
With `NCC1CCN(c2nc3ccccc3c3c2CCCC3)CC1`, the GI50 in the test with HCT-15 is 4.16 µM; in the test with NCI-H23, 15.5 µM (inactive); with A498, 12.4 µM (inactive); in the test on Hs-578T, 20.1 µM (inactive); with M14, 1.92 µM (inactive); in the test with OVCAR-3, 9.75 µM (inactive). For the same compound, the GI50 with MDA-MB-435 is 2.41 µM (inactive); in the test on MOLT-4, 3.59 µM (inactive); in the test with A549, 11.2 µM (inactive); in the test on LOX IMVI, 4.81 µM (inactive); in the test on SK-MEL-2, 5.73 µM (inactive); in the test on BT-549, 14.2 µM (inactive). Also, the GI50 in the test with 786-0 was 4.23 µM (inactive); in the test on HT-29, 2.42 µM (inactive); with HCT-116 it was 3.07 µM (inactive); with EKVX, 11.8 µM (inactive); with CCRF-CEM it was 2.87 µM (inactive); in the test on Malme-3M, 13.2 µM (inactive). Also, in the test on SK-MEL-5, the GI50 was 2.96 µM (inactive).
With `CCCC(=O)NC1=C(NCC)C(=O)c2ccccc2C1=O`, the GI50 was 39.8 µM with HCT-15; > 100 µM (inactive) with NCI-H23; 60.5 µM (inactive) in the test with SR; > 100 µM (inactive) in the test on Hs-578T; > 10 µM (inactive) in the test on M14; 34.2 µM (inactive) with OVCAR-3. The GI50 with MDA-MB-435 is 25.2 µM (inactive); with MOLT-4, 73.3 µM (inactive); in the test with A549, > 100 µM (inactive); in the test with BT-549 it was > 100 µM (inactive); in the test on 786-0 it was > 100 µM (inactive); with HT-29, 44.1 µM (inactive). Moreover, the GI50 was 43.7 µM (inactive) in the test with HCT-116, > 100 µM (inactive) in the test on CCRF-CEM, 38.5 µM (inactive) in the test with Malme-3M and 74.1 µM (inactive) in the test with SK-MEL-5.
As to `O=C(O)CC(NC(=O)Nc1ccc([N+](=O)[O-])cc1)C(=O)Nc1ccc([N+](=O)[O-])cc1` (centres undefined), the GI50 with HCT-15 is over 100 µM; with NCI-H23, > 100 µM (inactive); in the test with A498 it was > 100 µM (inactive); with Hs-578T, 50.2 µM (inactive); in the test on M14, > 100 µM (inactive); in the test with OVCAR-3 it was > 100 µM (inactive). The GI50 in the test with MDA-MB-435, in the test on MOLT-4, in the test on A549, with LOX IMVI, with SK-MEL-2 and in the test on BT-549 was > 100 µM (inactive) in each case. Moreover, the GI50 in the test on 786-0, in the test with HT-29, in the test with HCT-116, in the test on EKVX, in the test on CCRF-CEM and in the test with Malme-3M was > 100 µM (inactive) throughout. Moreover, the GI50 in the test on SK-MEL-5 is 50.8 µM (inactive).

Values taken from ChEMBL document CHEMBL1201862, “PubChem BioAssay data set” (2004).
